{
  "source": "patent US10265132B2",
  "about": "“Antimicrobial elastomeric articles” (ALLEGIANCE CORPORATION, priority 2012, dated 2019)",
  "key": {"[1]": {"test_system": "broad spectrum of microbes", "assay": "Minimum concentration of CHG on coated glove needed for 4 log efficacy in 5 minutes", "details": "5 minutes exposure, E. coli and MRSA", "method": "(§1) The formulation fabrication and coating application were the same as described in Example 1. The concentration of the active component, CHG, was varied in the formulation. These formulations were then applied to the gloves and the concentration of CHG needed on the coated glove in order to achieve at least 4 log efficacy was measured. The concentration of CHG was measured using UV-Visible spectroscopy with the assistance of a sodium hypobromite indicator. CHG was extracted from the glove using water and the unknown concentration was calculated versus a predetermined standard curve. The antimicrobial efficacy after an exposure time of 5 minutes was determined against E. coli and MRSA."}, "[2]": {"test_system": "E. coli", "assay": "Antimicrobial activity (log reduction) of coated gloves against E. coli, 5 minute exposure time", "method": "(§2) Antimicrobial Activity: The antimicrobial activity of sample 1-1 was tested before and after aging against E. coli and MRSA with a 5 minute exposure time:\n(§3) The coating composition and formulation fabrication remained the same as describe in Example 1. Sample 2-1 describes coated gloves that were stored in desiccated environments (described above in Example 1) before and after the application of the antimicrobial coating. Samples 2-2 and 2-3 represent coated gloves that were pre- and post-conditioned (using the technique described above in Example 1), respectively. Sample 2-4 describes coated gloves that were not desiccated before or after application of the antimicrobial coating. Samples 2-1 through 2-4 were tested before and after conditioning against E. coli and MRSA with a 5 minute exposure time.\nThe coating composition, formulation fabrication, and coating application method remained the same as described in Example 1, Sample 3-1 describes antimicrobial-coated gloves that were exposed to 23° C. with a relative humidity of 45%. Sample 3-2 describes antimicrobial-coated gloves that were exposed to 23° C. with a relative humidity of 55%. Sample 3-3 describes antimicrobial-coated gloves that were exposed to 23° C. with a relative humidity of 75%. All samples were tested after one and two weeks exposure to the temperature and humidity levels. Antimicrobial efficacy was recorded against E. coli after a 5 minute exposure time. […]\nas §1, with “The concentration of the active component, CHG, was varied in the formulation.” left out"}, "[3]": {"test_system": "MRSA", "assay": "Antimicrobial activity (log reduction) of coated gloves against MRSA, 5 minute exposure time", "parameters": "species or system methicillin-resistant Staphylococcus aureus", "method": "as §2, §3\nThe coating composition, formulation fabrication, and coating application method remained the same as described in Example 1. Antimicrobial gloves were packed into two packaging prototypes. The prototypes contained the antimicrobial coated gloves and the prototypes were subjected to outside conditions meant to simulated real world conditions experienced by medical glove products. Sample 4-1 is a control glove that was not packaged. Sample 4-2 is a packaging prototype comprised of Amcor aluminum foil laminate packaging containing antimicrobial-coated gloves and desiccant. […]\nas §1, with “The concentration of the active component, CHG, was varied in the formulation.” left out"}, "[4]": {"details": "CHG concentration on glove 2.09 μg/cm^2, 5 minutes exposure"}, "[5]": {"details": "CHG concentration on glove 7.63 μg/cm^2, 5 minutes exposure"}, "[6]": {"details": "CHG concentration on glove 11.90 μg/cm^2, 5 minutes exposure"}},
  "data": [
    {"molecule": "N=C(NCCCCCCNC(=N)NC(=N)Nc1ccc(Cl)cc1)NC(=N)Nc1ccc(Cl)cc1.O=C(O)[C@H](O)[C@@H](O)[C@H](O)[C@H](O)CO.O=C(O)[C@H](O)[C@@H](O)[C@H](O)[C@H](O)CO", "note": "[CHG, chlorhexidine digluconate]", "values": [
      {"measurement": "CHG needed to offer 4 log antimicrobial efficacy", "setting": "[1]", "value": "about 7.6 μg"},
      {"measurement": "Log Reduction E. coli", "setting": "[2]; [4]", "value": 1.67, "unit": "log"},
      {"measurement": "Log Reduction E. coli", "setting": "[2]; [5]", "value": 4.18, "unit": "log"},
      {"measurement": "Log Reduction E. coli", "setting": "[2]; [6]", "value": 4.72, "unit": "log"},
      {"measurement": "Log Reduction MRSA", "setting": "[3]; [4]", "value": 3.08, "unit": "log"},
      {"measurement": "Log Reduction MRSA", "setting": "[3]; [5]", "value": 4.16, "unit": "log"},
      {"measurement": "Log Reduction MRSA", "setting": "[3]; [6]", "value": 4.06, "unit": "log"}
    ]}
  ]
}
